# Test results published in PubChem BioAssay AID330 (DTP/NCI, 2004).
# Several values for one entry are separate records, joined by “and”; a condition that tells them apart may be missing. Equal values may be shown once. Inconclusive results and toxic doses are left out.
# System: P388 leukemia ip, CD2F1 mice, survival T/C
# Experiment: NCI In Vivo Anticancer Drug Screen. Data for tumor model P388 Leukemia (intraperitoneal) in CD2F1 (CDF1) mice
# Conditions: endpoint: median survival time, higher = longer survival
# In short: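 Mice carrying the transplanted tumor received test compound or vehicle. Survival was recorded in each group, and the value is the treated-group measurement divided by that of the vehicle-treated control group.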
# [1] = dose: 50.0 mg/kg/injection, schedule: Q01DX009 (ip), vehicle: Klucel (hydroxypropylcellulose) (HPC)
# [2] = dose: 100.0 mg/kg/injection, schedule: Q01DX009 (ip), vehicle: Klucel (hydroxypropylcellulose) (HPC)
# [3] = dose: 200.0 mg/kg/injection, schedule: Q01DX009 (ip), vehicle: Klucel (hydroxypropylcellulose) (HPC)
# [4] = dose: 100.0 mg/kg/injection, schedule: Q04DX003 (ip), vehicle: saline with Tween-80
# [5] = dose: 200.0 mg/kg/injection, schedule: Q04DX003 (ip), vehicle: saline with Tween-80
# [6] = dose: 25.0 mg/kg/injection, schedule: Q01DX005 (ip), vehicle: Klucel (hydroxypropylcellulose) (HPC)
# [7] = dose: 50.0 mg/kg/injection, schedule: Q01DX005 (ip), vehicle: Klucel (hydroxypropylcellulose) (HPC)
# [8] = dose: 100.0 mg/kg/injection, schedule: Q01DX005 (ip), vehicle: Klucel (hydroxypropylcellulose) (HPC)
# [9] = dose: 200.0 mg/kg/injection, schedule: Q01DX005 (ip), vehicle: Klucel (hydroxypropylcellulose) (HPC)
# [10] = dose: 50.0 mg/kg/injection, schedule: Q01DX009 (ip), vehicle: saline
# [11] = dose: 100.0 mg/kg/injection, schedule: Q01DX009 (ip), vehicle: saline
# [12] = dose: 200.0 mg/kg/injection, schedule: Q01DX009 (ip), vehicle: saline
# [13] = dose: 25.0 mg/kg/injection, schedule: Q01DX005 (ip), vehicle: saline with Tween-80
# [14] = dose: 50.0 mg/kg/injection, schedule: Q01DX005 (ip), vehicle: saline with Tween-80
# [15] = dose: 200.0 mg/kg/injection, schedule: Q01DX005 (ip), vehicle: saline with Tween-80
# [16] = dose: 50.0 mg/kg/injection, schedule: Q01DX009 (ip), vehicle: saline with Tween-80
# [17] = dose: 100.0 mg/kg/injection, schedule: Q01DX009 (ip), vehicle: saline with Tween-80
# [18] = dose: 200.0 mg/kg/injection, schedule: Q01DX009 (ip), vehicle: saline with Tween-80
# [19] = dose: 25.0 mg/kg/injection, schedule: Q01DX009 (ip), vehicle: saline with Tween-80
# [20] = dose: 60.0 mg/kg/injection, schedule: Q01DX005 (ip), vehicle: saline with Tween-80
# [21] = dose: 120.0 mg/kg/injection, schedule: Q01DX005 (ip), vehicle: saline with Tween-80
# [22] = dose: 240.0 mg/kg/injection, schedule: Q01DX005 (ip), vehicle: saline with Tween-80
structure (smiles),measurement,setting,value
CN1C2=CCCCC2(C)c2ccccc21 (centres undefined),T/C,"dose: 60.0 mg/kg/injection, schedule: Q01DX005 (ip), vehicle: saline",105 % of control
same,T/C,"dose: 120.0 mg/kg/injection, schedule: Q01DX005 (ip), vehicle: saline",115 % of control
same,T/C,"dose: 240.0 mg/kg/injection, schedule: Q01DX005 (ip), vehicle: saline",118 % of control
CCCOc1ccc(C#N)cc1,T/C,[1],102 % of control
same,T/C,[2],108 % of control
same,T/C,[3],99 % of control
Clc1ccc(N2C=Nc3ccc(Cl)cc3C2)cc1,T/C,[1],100 % of control
same,T/C,[2],97 % of control
same,T/C,[3],98 % of control
CN(c1ccccc1)C1CS(=O)(=O)OC2=C1CN(Cc1ccccc1)CC2 (centres undefined),T/C,[4],99 % of control
same,T/C,[5],94 % of control
same,T/C,"dose: 400.0 mg/kg/injection, schedule: Q04DX003 (ip), vehicle: saline with Tween-80",90 % of control
C=Cc1ccccc1N/N=C(\Cl)C(=O)OCC,T/C,"dose: 100.0 mg/kg/injection, schedule: Q04DX002 (ip), vehicle: saline with Tween-80",108 % of control
same,T/C,"dose: 200.0 mg/kg/injection, schedule: Q04DX002 (ip), vehicle: saline with Tween-80",113 % of control
Cc1ccc(NC(=O)CCCCC(C)NCC(O)c2ccc(O)c(O)c2)cc1 (centres undefined),T/C,"dose: 100.0 mg/kg/injection, schedule: Q01DX001 (ip), vehicle: saline",97 % of control
same,T/C,"dose: 200.0 mg/kg/injection, schedule: Q01DX001 (ip), vehicle: saline",100 % of control
Cc1ccc[c]([Hg][Cl])c1N=Nc1ccccc1,T/C,"dose: 9.5 mg/kg/injection, schedule: Q01DX009 (ip), vehicle: saline with Tween-80",118 % of control
same,T/C,"dose: 19.0 mg/kg/injection, schedule: Q01DX009 (ip), vehicle: saline with Tween-80",110 % of control
CCOC(=O)Nc1nc2ccccc2n1CN1CCCC1,T/C,[6],112 % of control
same,T/C,[7],111 % of control
same,T/C,[8],114 % of control
same,T/C,[9],117 % of control
O=C(N/N=C/c1cc(Cl)cc(Cl)c1[O-])c1ccccc1.O=C(N/N=C/c1cc(Cl)cc(Cl)c1[O-])c1ccccc1.[Zn+2],T/C,"dose: 100.0 mg/kg/injection, schedule: Q01DX001 (ip), vehicle: saline with Tween-80",92 % of control
same,T/C,"dose: 200.0 mg/kg/injection, schedule: Q01DX001 (ip), vehicle: saline with Tween-80",94 % of control
same,T/C,"dose: 400.0 mg/kg/injection, schedule: Q01DX001 (ip), vehicle: saline with Tween-80",92 % of control
O=C(CCl)Nc1nncs1,T/C,"dose: 12.5 mg/kg/injection, schedule: Q01DX009 (ip), vehicle: distilled water + Tween-80",100 % of control
same,T/C,"dose: 25.0 mg/kg/injection, schedule: Q01DX009 (ip), vehicle: distilled water + Tween-80",104 % of control
same,T/C,"dose: 50.0 mg/kg/injection, schedule: Q01DX009 (ip), vehicle: distilled water + Tween-80",106 % of control
same,T/C,"dose: 100.0 mg/kg/injection, schedule: Q01DX009 (ip), vehicle: distilled water + Tween-80",104 % of control
same,T/C,"dose: 200.0 mg/kg/injection, schedule: Q01DX009 (ip), vehicle: distilled water + Tween-80",100 % of control
C[P+]12CN3CN(CN(C3)C1)C2,T/C,[10],107 % of control
same,T/C,[11],107 % of control
same,T/C,[12],101 % of control
CCCCCCCCCCCCCCCCCC1=NC(C)CC(C)(C)O1 (centres undefined),T/C,[11],95 % of control
same,T/C,[12],104 % of control
CSC1=Nc2ccccc2N=C(N2CCCC2)C1,T/C,[7],103 % of control
same,T/C,[8],97 % of control
same,T/C,[9],97 % of control
CCOC(=O)c1ccccc1N,T/C,[13],100 % of control
same,T/C,[14],105 % of control
same,T/C,"dose: 100.0 mg/kg/injection, schedule: Q01DX005 (ip), vehicle: saline with Tween-80",99 % of control
same,T/C,[15],100 % of control
CC1OC=CC(OC2OC(CO)C(O)C(O)C2O)C1O (centres undefined),T/C,"dose: 21.25 mg/kg/injection, schedule: Q01DX005 (ip), vehicle: saline",109 % of control
same,T/C,"dose: 42.5 mg/kg/injection, schedule: Q01DX005 (ip), vehicle: saline",116 % of control
same,T/C,"dose: 85.0 mg/kg/injection, schedule: Q01DX005 (ip), vehicle: saline",108 % of control
same,T/C,"dose: 170.0 mg/kg/injection, schedule: Q01DX005 (ip), vehicle: saline",101 % of control
CCCCCCC(=O)/C=C/c1c(OC)cc(OC)cc1OC,T/C,[16],101 % of control
same,T/C,[17],101 % of control
same,T/C,[18],97 % of control
CC(=O)OCC/C(SC(C)=O)=C(/C)N(C=O)Cc1cnc(C)nc1N,T/C,[10],98 % of control
same,T/C,[11],94 % of control
same,T/C,[12],100 % of control
[CH3][Ge]([CH3])([CH3])[N]=S=[N][Ge]([CH3])([CH3])[CH3],T/C,"dose: 12.5 mg/kg/injection, schedule: Q01DX005 (ip), vehicle: saline with Tween-80",105 % of control
same,T/C,[13],100 % of control
same,T/C,[14],99 % of control and 100 % of control
O=[N+]([O-])c1ccc(-c2sc(-c3ccccc3)nc2O)cc1,T/C,"dose: 12.5 mg/kg/injection, schedule: Q01DX009 (ip), vehicle: saline with Tween-80",100 % of control
same,T/C,[19],98 % of control
same,T/C,[16],91 % of control and 94 % of control
same,T/C,[18],88 % of control
Cc1noc(C)c1-c1onc2ccc(Cl)cc12,T/C,[2],96 % of control
same,T/C,[3],96 % of control
CCC(C)P(=O)(N1CC1)N1CC1 (centres undefined),T/C,"dose: 6.25 mg/kg/injection, schedule: Q01DX009 (ip), vehicle: saline",109 % of control
same,T/C,"dose: 6.25 mg/kg/injection, schedule: Q04DX003 (ip), vehicle: saline",113 % of control
same,T/C,"dose: 25.0 mg/kg/injection, schedule: Q01DX009 (ip), vehicle: saline",154 % of control
same,T/C,"dose: 25.0 mg/kg/injection, schedule: Q04DX003 (ip), vehicle: saline",190 % of control
N#CC(C(=O)C(=O)Nc1ccc(Cl)c(Cl)c1)c1c(Cl)cccc1Cl (centres undefined),T/C,[20],102 % of control
same,T/C,[21],97 % of control
same,T/C,[22],89 % of control
NNC(=O)CCc1ccccc1Br,T/C,[16],100 % of control and 90 % of control
same,T/C,"dose: 50.0 mg/kg/injection, schedule: Q04DX003 (ip), vehicle: saline with Tween-80",104 % of control
same,T/C,[17],100 % of control
same,T/C,[4],90 % of control
same,T/C,[18],95 % of control
same,T/C,[5],90 % of control
Cc1[nH]nc2c(C/C=C/c3ccccc3)n[nH]c(=O)c12,T/C,[1],98 % of control
same,T/C,[2],100 % of control
same,T/C,[3],101 % of control
CCCCCCCCCCCCCCN=Cc1c(O)c(O)c(C(C)C)c2cc(C)c(-c3c(C)cc4c(C(C)C)c(O)c(O)c(C=NCCCCCCCCCCCCCC)c4c3O)c(O)c12,T/C,"dose: 12.5 mg/kg/injection, schedule: Q01DX005 (ip), vehicle: Klucel (hydroxypropylcellulose) (HPC)",98 % of control
same,T/C,[6],90 % of control
same,T/C,[7],98 % of control
same,T/C,[8],95 % of control
CC(=O)N(C)O,T/C,[16],100 % of control and 104 % of control
same,T/C,[17],105 % of control and 110 % of control
same,T/C,[15],121 % of control
same,T/C,"dose: 400.0 mg/kg/injection, schedule: Q01DX009 (ip), vehicle: saline with Tween-80",160 % of control
COc1ccc(CCN)cc1OC,T/C,[16],100 % of control
same,T/C,[17],100 % of control
same,T/C,[11],108 % of control
same,T/C,[18],100 % of control
same,T/C,[12],106 % of control
Cc1cc(NC(=O)CSCC(=O)O)no1,T/C,"dose: 60.0 mg/kg/injection, schedule: Q01DX005 (ip), vehicle: Klucel (hydroxypropylcellulose) (HPC)",98 % of control
same,T/C,"dose: 120.0 mg/kg/injection, schedule: Q01DX005 (ip), vehicle: Klucel (hydroxypropylcellulose) (HPC)",101 % of control
same,T/C,"dose: 240.0 mg/kg/injection, schedule: Q01DX005 (ip), vehicle: Klucel (hydroxypropylcellulose) (HPC)",94 % of control
CC(C)(C)N(O)c1cccc(P(=O)(c2ccccc2)c2ccccc2)c1,T/C,[19],108 % of control
same,T/C,[16],94 % of control
same,T/C,[17],92 % of control
Cc1ccccc1C(=O)c1cnc(C)n1Cc1ccccc1,T/C,[20],96 % of control
same,T/C,[21],98 % of control
same,T/C,[22],98 % of control
